Data on 28 molecules can be found in patent US10479795B2 (Incyte Corporation, priority 2016, dated 2019).

Molecules are shown by their SMILES. Structures can show the parent of a compound that is named as a salt.

The IC50 is the concentration at which inhibition is half-maximal.

Chain of PI3Kγ (p110γ) Recombinant Human Protein (P48736 whole entry): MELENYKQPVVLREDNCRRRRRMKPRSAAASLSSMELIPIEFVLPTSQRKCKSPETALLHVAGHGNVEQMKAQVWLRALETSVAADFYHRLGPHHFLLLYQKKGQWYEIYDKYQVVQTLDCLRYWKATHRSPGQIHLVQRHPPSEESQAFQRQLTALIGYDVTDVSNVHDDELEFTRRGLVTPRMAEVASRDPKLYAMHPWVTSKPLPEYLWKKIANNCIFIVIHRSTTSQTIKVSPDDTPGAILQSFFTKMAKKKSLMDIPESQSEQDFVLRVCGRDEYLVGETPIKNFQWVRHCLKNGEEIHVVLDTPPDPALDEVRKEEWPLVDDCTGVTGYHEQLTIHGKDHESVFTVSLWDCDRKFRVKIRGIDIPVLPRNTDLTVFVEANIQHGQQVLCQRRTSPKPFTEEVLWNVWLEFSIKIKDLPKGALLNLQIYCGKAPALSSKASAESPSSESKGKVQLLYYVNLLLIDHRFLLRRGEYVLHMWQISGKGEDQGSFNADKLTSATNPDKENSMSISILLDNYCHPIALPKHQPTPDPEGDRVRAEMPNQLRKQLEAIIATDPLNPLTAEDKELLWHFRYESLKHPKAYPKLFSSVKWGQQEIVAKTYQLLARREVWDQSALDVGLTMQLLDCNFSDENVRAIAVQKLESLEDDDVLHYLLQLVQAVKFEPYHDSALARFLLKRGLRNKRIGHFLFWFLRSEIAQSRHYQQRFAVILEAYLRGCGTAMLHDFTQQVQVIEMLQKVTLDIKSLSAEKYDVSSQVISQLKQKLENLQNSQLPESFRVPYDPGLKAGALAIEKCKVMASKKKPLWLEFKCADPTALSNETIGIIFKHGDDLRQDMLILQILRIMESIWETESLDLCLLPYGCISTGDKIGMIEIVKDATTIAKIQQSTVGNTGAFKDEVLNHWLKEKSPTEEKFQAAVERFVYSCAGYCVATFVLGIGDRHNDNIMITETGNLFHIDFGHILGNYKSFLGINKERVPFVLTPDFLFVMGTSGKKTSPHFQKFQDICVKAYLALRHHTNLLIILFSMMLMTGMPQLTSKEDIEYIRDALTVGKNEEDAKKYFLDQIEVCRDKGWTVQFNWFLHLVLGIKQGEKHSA

This assay has as its target PI3Kγ (p110γ) Recombinant Human Protein (Homo sapiens (Human), UniProt P48736). In words: PI3K-γ Scintillation Proximity Assay. It counts as biochemical. The following applies: read-out: PI3Kγ IC50. The method, then: [γ-^33P]ATP (10 mCi/mL) and Wheat Germ Agglutinin (WGA) YSi SPA Scintillation Beads was purchased from Perkin-Elmer (Waltham, Mass.). […] PI3Kγ (p110γ) Recombinant Human Protein was purchased from Life technology (Grand Island, N.Y.). ATP, MgCl2, DTT, EDTA, MOPS and CHAPS were purchased from Sigma-Aldrich (St. Louis, Mo.).
The kinase reaction was conducted in polystyrene 384-well Greiner Bio-one white plate from Thermo Fisher Scientific in a final volume of 25 μL. Inhibitors were first diluted serially in DMSO and added to the plate wells before the addition of other reaction components. The final concentration of DMSO in the assay was 2%. The PI3Kγ assay was carried out at room temperature in 20 mM MOPS, pH 6.7, 10 mM MgCl2, 5 mM DTT and CHAPS 0.03%. Reactions were initiated by the addition of ATP, the final reaction mixture consisted of 20 μM PIP2, 2 μM ATP, 0.5 μCi [γ-^33P] […] The final concentration of SPA beads is 1.0 mg/mL. After the plate sealing, plates were shaken overnight at room temperature and centrifuged at 1500 rpm for 10 min, the radioactivity of the product was determined by scintillation counting on Topcount (Perkin-Elmer). IC50 determination was performed by fitting the curve of percent of the solvent control activity versus the log of the inhibitor concentration using the GraphPad Prism 6.0 software.
As to `Cc1ccc(S(=O)(=O)NC23CC(CN(C)C2)C3)cc1-c1cnc2c(N)ncnn12` [Example 523, 3-(4-Aminoimidazo[2,1-f][1,2,4]triazin-7-yl)-4-methyl-N-(3-methyl-3-azabicyclo[3.1.1]heptan-1-yl)benzenesulfonamide trifluoroacetate], the IC50 was less than 100 nM.
On to `CNC(=O)C1CCN(S(=O)(=O)c2ccc(C)c(-c3cnc4c(N)ncnn34)c2)CC1` [Example 227, 1-((3-(4-aminoimidazo[2,1-f][1,2,4]triazin-7-yl)-4-methylphenyl)sulfonyl)-N-methylpiperidine-4-carboxamide], for which the IC50 is less than 100 nM.
Then `Cc1ccc(S(=O)(=O)NC23CC(CN(C(C)C)C2)C3)cc1-c1cnc2c(N)nc(C(F)(F)F)nn12` [Example 524, 3-(4-Amino-2-(trifluoromethyl)imidazo[2,1-f][1,2,4]triazin-7-yl)-N-(3-isopropyl-3-azabicyclo[3.1.1]heptan-1-yl)-4-methylbenzenesulfonamide trifluoroacetate], with less than 100 nM; and `Cc1ccc(S(=O)(=O)Nc2ccc(C(=O)NCC(F)(F)F)nc2)cc1-c1cnc2c(N)ncnn12` [Example 539, 5-((3-(4-Aminoimidazo[2,1-f][1,2,4]triazin-7-yl)-4-methylphenyl)sulfonamido)-N-(2,2,2-trifluoroethyl)picolinamide trifluoroacetate], with less than 100 nM.
The value for `Cc1ccc(S(=O)(=O)N2CCn3ccnc3C2)cc1-c1cnc2c(N)ncnn12` [Example 223, 7-(5-((5,6-dihydroimidazo[1,2-a]pyrazin-7(8H)-yl)sulfonyl)-2-methylphenyl)imidazo[2,1-f][1,2,4]triazin-4-amine] was less than 100 nM; that for `Cc1ccc(S(=O)(=O)NC2(C)CCN(C3CC(C#N)C3)CC2)cc1-c1cnc2c(N)nc(C(F)(F)F)nn12` (stereo not shown) [Example 529, 3-(4-Amino-2-(trifluoromethyl)imidazo[2,1-f][1,2,4]triazin-7-yl)-N-(1-(3-cyanocyclobutyl)-4-methylpiperidin-4-yl)-4-methylbenzenesulfonamide trifluoroacetate] was 100 to 500 nM; that for `Cc1ccc(S(=O)(=O)NC23CC(CN(C4CCC4)C2)C3)cc1-c1cnc2c(N)ncnn12` [Example 525, 3-(4-Aminoimidazo[2,1-f][1,2,4]triazin-7-yl)-N-(3-cyclobutyl-3-azabicyclo[3.1.1]heptan-1-yl)-4-methylbenzenesulfonamide trifluoroacetate] was 100 to 500 nM.
Then `Cc1ccc(S(=O)(=O)N2CC(C3CCOC3)C2)cc1-c1cnc2c(N)ncnn12` (stereo not shown) [Example 219, 7-(2-methyl-5-((3-(tetrahydrofuran-3-yl)azetidin-1-yl)sulfonyl)phenyl)imidazo[2,1-f][1,2,4]triazin-4-amine], with 100 to 500 nM; and `CC(=O)N1CCN(S(=O)(=O)c2ccc(C)c(-c3cnc4c(N)ncnn34)c2)CC1` [Example 229, 1-(4-((3-(4-aminoimidazo[2,1-f][1,2,4]triazin-7-yl)-4-methylphenyl)sulfonyl)piperazin-1-l)ethan-1-one], with less than 100 nM; and `Cc1ccc(S(=O)(=O)N2CCn3cnnc3C2C)cc1-c1cnc2c(N)ncnn12` (stereo not shown) [Example 222, 7-(2-methyl-5-((8-methyl-5,6-dihydro-[1,2,4]triazolo[4,3-a]pyrazin-7(8H)-yl)sulfonyl)phenyl)imidazo[2,1-f][1,2,4]triazin-4-amine], with less than 100 nM.
As for `Cc1ccc(S(=O)(=O)Nc2ccc(C(=O)N3CC(O)C3)nc2)cc1-c1cnc2c(N)ncnn12` [Example 242, 3-(4-aminoimidazo[2,1-f][1,2,4]triazin-7-yl)-N-(6-(3-hydroxyazetidine-1-carbonyl)pyridin-3-yl)-4-methylbenzenesulfonamide], the IC50 was less than 100 nM.
The value for `Cc1ccc(S(=O)(=O)Nc2ccnc(C#N)c2)cc1-c1cnc2c(N)ncnn12` [Example 248, 3-(4-aminoimidazo[2,1-f][1,2,4]triazin-7-yl)-N-(2-cyanopyridin-4-yl)-4-methylbenzenesulfonamide] was less than 100 nM; that for `Cc1ccc(S(C)(=O)=O)cc1-c1cnc2c(N)nc(C3CCOCC3)cn12` [Example 536, 3-(2-Methyl-5-(methylsulfonyl)phenyl)-6-(tetrahydro-2H-pyran-4-yl)imidazo[1,2-a]pyrazin-8-amine trifluoroacetate] was less than 100 nM; that for `Cc1ccc(S(=O)(=O)N2CCC(c3ccccn3)CC2)cc1-c1cnc2c(N)ncnn12` [Example 216, 7-(2-methyl-5-((4-(pyridin-2-yl)piperidin-1-yl)sulfonyl)phenyl)imidazo[2,1-f][1,2,4]triazin-4-amine] was less than 100 nM.
Regarding `Cc1ccc(S(=O)(=O)NCc2ccnn2C)cc1-c1cnc2c(N)nc(C(F)(F)F)nn12` [Example 357, 3-(4-amino-2-(trifluoromethyl)imidazo[2,1-f][1,2,4]triazin-7-yl)-4-methyl-N-((1-methyl-1H-pyrazol-5-yl)methyl)benzenesulfonamide], the IC50 was less than 100 nM.
The value for `CC(=O)N1CCC(c2cn3c(-c4cc(S(C)(=O)=O)ccc4C)cnc3c(N)n2)CC1` [Example 537, 1-(4-(8-Amino-3-(2-methyl-5-(methylsulfonyl)phenyl)imidazo[1,2-a]pyrazin-6-yl)piperidin-1-yl)ethan-1-one trifluoroacetate] was less than 100 nM; that for `CC(=O)NC1CCN(S(=O)(=O)c2ccc(C)c(-c3cnc4c(N)ncnn34)c2)CC1` [Example 226, N-(1-((3-(4-aminoimidazo[2,1-f][1,2,4]triazin-7-yl)-4-methylphenyl)sulfonyl)piperidin-4-yl)acetamide] was less than 100 nM; that for `Cc1ccc(S(=O)(=O)NCc2cnccn2)cc1-c1cnc2c(N)ncnn12` [Example 233, 3-(4-aminoimidazo[2,1-f][1,2,4]triazin-7-yl)-4-methyl-N-(pyrazin-2-ylmethyl)benzenesulfonamide] was less than 100 nM.
Then `Cc1ccc(S(=O)(=O)NC2(C)CCN(C3CCOC3)CC2)cc1-c1cnc2c(N)nc(C(F)(F)F)nn12` (stereo not shown) [Example 530, 3-(4-Amino-2-(trifluoromethyl)imidazo[2,1-f][1,2,4]triazin-7-yl)-4-methyl-N-(4-methyl-1-(tetrahydrofuran-3-yl)piperidin-4-yl)benzenesulfonamide trifluoroacetate], with 100 to 500 nM; and `Cc1ccc(S(=O)(=O)NC2(C)CCN(C)CC2)cc1-c1cnc2c(N)nc(C(F)(F)F)nn12` [Example 528, 3-(4-Amino-2-(trifluoromethyl)imidazo[2,1-f][1,2,4]triazin-7-yl)-N-(1,4-dimethylpiperidin-4-yl)-4-methylbenzenesulfonamide trifluoroacetate], with less than 100 nM; and `Cc1ccncc1NS(=O)(=O)c1ccc(C)c(-c2cnc3c(N)ncnn23)c1` [Example 245, 3-(4-aminoimidazo[2,1-f][1,2,4]triazin-7-yl)-4-methyl-N-(4-methylpyridin-3-yl)benzenesulfonamide], with less than 100 nM.
The value for `Cc1nc(CNS(=O)(=O)c2ccc(C)c(-c3cnc4c(N)ncnn34)c2)no1` [Example 237, 3-(4-aminoimidazo[2,1-f][1,2,4]triazin-7-yl)-4-methyl-N-((5-methyl-1,2,4-oxadiazol-3-yl)methyl)benzenesulfonamide] was less than 100 nM; that for `Cc1ccc(S(=O)(=O)N2CCc3nn(C)cc3C2)cc1-c1cnc2c(N)ncnn12` [Example 225, 7-(2-methyl-5-((2-methyl-2,4,6,7-tetrahydro-5H-pyrazolo[4,3-c]pyridin-5-yl)sulfonyl)phenyl)imidazo[2,1-f][1,2,4]triazin-4-amine] was less than 100 nM; that for `Cc1ccc(S(=O)(=O)Nc2c(C)nn(C)c2C)cc1-c1cnc2c(N)ncnn12` [Example 214, 3-(4-Aminoimidazo[2,1-f][1,2,4]triazin-7-yl)-4-methyl-N-(1,3,5-trimethyl-1H-pyrazol-4-yl)benzenesulfonamide] was less than 100 nM.
Consider `Cc1ccc(S(=O)(=O)NC2(C)CNC2)cc1-c1cnc2c(N)nc(C(F)(F)F)nn12` [Example 531, 3-(4-Amino-2-(trifluoromethyl)imidazo[2,1-f][1,2,4]triazin-7-yl)-4-methyl-N-(3-methylazetidin-3-yl)benzenesulfonamide trifluoroacetate], for which the IC50 is less than 100 nM.
The value for `Cc1ccc(S(=O)(=O)N2C3CC4CC2CC(C3)O4)cc1-c1cnc2c(N)ncnn12` [Example 221, 7-(5-((-2-oxa-6-azaadamantan-6-yl)sulfonyl)-2-methylphenyl)imidazo[2,1-f][1,2,4]triazin-4-amine] was less than 100 nM.
Then `Cc1ccc(S(=O)(=O)N2CC3(CCOC3)C2)cc1-c1cnc2c(N)ncnn12` [Example 220, 7-(5-((6-oxa-2-azaspiro[3.4]octan-2-yl)sulfonyl)-2-methylphenyl)imidazo[2,1-f][1,2,4]triazin-4-amine], with less than 100 nM; and `COC(=O)N1CCC(c2cn3c(-c4cc(S(C)(=O)=O)ccc4C)cnc3c(N)n2)C1` (stereo not shown) [Example 538, Methyl 3-(8-amino-3-(2-methyl-5-(methylsulfonyl)phenyl)imidazo[1,2-a]pyrazin-6-yl)pyrrolidine-1-carboxylate trifluoroacetate], with 100 to 500 nM.
